One series has as its system L929 cells. Put plainly: L929 apoptosis assay (TNF-alpha activity). It is filed as cell-based. Here is the method: The physiological TNF-alpha-activity of TNF-alpha-modified ubiquitin based ED-B binding fusions has been determined using the L929 apoptosis assay (Flick et al., 1984 J. Immunol. Methods. 68:167-175). In this assay, TNF-alpha efficiently stimulates cell death in actinomycinD sensitized cells at EC50 values in the picomolar range.
Cells have been resuspended in medium containing FBS and antibiotics. A cell suspension of 100 μl of a densitiy of 3.5×10^5 cells/ml has been seeded into the wells of a 96 well standard cell culture plate followed by over night incubation in a humidified CO2 incubator. Thereafter, the culture medium has been removed and 50 μl of medium containing FBS, ActinomycinD and antibiotics has been added to each well followed by a further 30 min incubation time. Thereafter, 50 μl of the test items, TNF-alpha-modified ubiquitin based ED-B binding-fusions or the human recombinant TNF-alpha control, at an appropriate concentration range of between 10^−7 and 10^−18 M, have been added. After a further 48 h incubation time the metabolic activity as a measure of cell survival was determined using WST-1 reagent (Roche).
Per test item at least three independent experiments have been conducted, each of them in triplicates. […]
The quantitative evaluation is based on the EC50-value, i.e. the value according to the test item concentration promoting the survival of half of the cells.

In another series the test system is F9 teratoma. The format is in vivo. The following applies: for effect on tumor growth: stage 1. As to the method: To establish the therapeutic efficacy of 1041-D11-TNFalpha, the compound was tested on F9 teratoma (see Borsi et al., 2003 Blood 102, 4384-4392) in mouse models. […] F9 teratoma is an aggressive tumor with high vascular density. […] The experimental schedule for the efficacy study was adapted from Borsi, 2003.
Stage 1 defined the pharmacologic active and tolerable dose with endpoints relating to the ratio of tumor vs. body weight, weight loss and survival. […]
Stage 2 of the study defined the dose-dependent efficacy with Melphalan having as endpoint the retardation of tumor growth (animal weight loss>10%, tumor>10% body weight, ulceration of tumor). In the study, 1041D11/mTNFa, murine TNFa, in combination with melphalan were tested.

Another series relates to EDB expressing cells. Briefly: binding specificity of the TNF-alpha fusion in cell culture (FIG. 17E). The format is cell-based.
Series [1] has as its target ED-B containing fibronectin fragment (67B89) (Homo sapiens, UniProt P02751). Put plainly: label-free interaction assay using BIACORE. It is filed as binding. As to the method:
Different concentrations of the variant were analyzed (for example, 0-200 nM of the variant, preferably 1041-D11) for binding to an ED-B containing fibronectin fragment (referred to as 67B89) immobilized on a CMS-chip (BIACORE®) using methods known to those skilled in the art. The obtained data were processed via the BIAevaluation software and 1:1-Langmuir-fitting. The kinetic binding constants were kon=7.6*10^5 M^−1s^−1; koff=7.7*10^−4 s^−1. The kinetic binding constants were kon=4.5*10^5 M^−1 s^−1; koff 5.0^*10^−4 s^−1.

The target of series [2] is T1, Human fibronectin lacking the ED-B domain (h6789) (Homo sapiens, UniProt P02751).
T1 construct: Human fibronectin lacking the ED-B domain (h6789)
Briefly: concentration dependent ELISA, negative control fibronectin fragment without ED-B. The format is binding. Conditions: conc.-ELISA, open circles.

In series [3] the test system is human fetal lung fibroblast cells (Wi38). Put plainly: binding to cell culture cells, Wi38. The format is cell-based. Conditions: immunofluorescence. Here is the method:
(§1) The binding of variant 1041-D11 to cell culture cells was tested. Different cell culture cells were analysed, including normal human fetal lung fibroblast cells having high expression levels of ED-B (Wi38 cells), a mouse embryonic fibroblast cell line (Balb 3T3); a stromal cell line, derived from mouse bone marrow (ST-2) monocytes/macrophages (RAW 264.7), NHDF cells and murine fibroblast cells (LM).
The negative control cell type NHDF are primary normal fibroblast cells, which express low levels of EDB-fibronectin (data not shown).
The negative control cells type NHDF are primary normal fibroblast cells, which express low levels of EDB-fibronectin. The cells were plated in chamber-slides (NUNC, 60000 cells/ml). To analyses the binding potential the cells were fixed with 100% MeOH for 5 min at −20° C. To block unspecific binding, the cells were incubated with 5% Horse-serum 1 h 37° C. The cells were tested with the variant 1041-D11, an ED-B specific antibody FV28 CH4/F1 as positive control or UB—2 as negative control with different concentrations 1 h RT. The proving occurred about an incubation with rabbit-a-Strep-Tag-IgG (obtained from GenScript A00875, 1:500) for 1 h and incubation with a-rabbit-IgG*Alexa488-AK (obtained from Invitrogen A11008, 1:1000) for 1 h. The nuclei were stained with DAPI. […] The first 2 lines show the variant and positive control on Wi38-cell line.

The next series deals with ED-B (Homo sapiens, UniProt P02751). Put plainly: ED-B binding analysis, method not stated (FIG. 7, general statements).
Series [4] concerns the target T2, fibronectin fragment 6789 without ED-B (Homo sapiens, UniProt P02751).
T2 construct: fibronectin fragment 6789 without ED-B
Briefly: complex-formation analysis by SE-HPLC with 6789. It is filed as binding. Conditions: 0.72 nmol each, 1 h at RT. Here is the method:
(§2) For the analysis of complex formation, Tricorn Superdex 75 5/150 GL columns (GE-Healthcare) (V=3 ml) was used, protein amount of 50 μl was applied. Further conditions: buffer: 1×PBS, pH 7.3, flow-rate: 0.3 ml/min, run: 45 min (injection of sample: after 15 min). Condition: 0.72 nmol 1041-D11 protein+0.72 nmol ED-B (herein referred to 67B89 or also as a negative control 6789) incubated for 1 h at RT; then applied to column for analysis of complex-formation. In FIGS. 14A and 14B, only the variant is shown in black, only the target ED-B is shown in blue, the variant binding building a complex with ED-B in pink.

Series [5] deals with T3, ED-B (F9 tumor vasculature) (Mus musculus, UniProt P11276).
T3 construct: 1041-D11 specifically decorates the vasculature in tissue sections from F9 tumors; from tissue; host or cells: F9 tumor tissue sections from mice
Briefly: immunohistochemistry on F9 tumor tissue sections. It is filed as binding, mice. Conditions: seven samples; 10 nM to 100 nM / 500 nM. As to the method:
F9 tumor tissues from seven samples were evaluated. […] ED-B is a highly specific marker for tumor vasculature. The target protein EDB is located on the abluminal side of the vessels. 1041-D11 specifically decorates the vasculature in tissue sections from F9 tumors. […] Thus, fusion proteins based on modified ubiquitin specifically binding to ED-B are suitable an ED-B based targeted therapy for cancer.

A further series relates to F9 tumor tissues. Put plainly: accumulation in F9 tumor tissue. The format is in vivo, mice. The following applies: time points between 30 min and 16 h.
In a further series the test system is murine ST-2-cells. Put plainly: binding to cell culture cells, ST-2. The format is cell-based. The following applies: 1, 10, 50 nM. As to the method: as §1
(§3) Similar experiments were performed using different cells types, for example Balb3T3 (ATCC, Kat-Nr. 30-2002), Raw (Lonza, Kat-Nr. BE12-115F/U1), ST-2 (Lonza, Ka t-Nr. BE12-115F/U1).

The target in series [6] is fibronectin fragment 67B89 (ED-B) (Homo sapiens, UniProt P02751). Briefly: complex-formation analysis by SE-HPLC with 67B89. It is filed as binding. The following applies: 0.72 nmol each, 1 h at RT. Here is the method: as §2
Series [7] deals with 48 tissues in FDA relevant panel. Put plainly: tissue panel staining (48 tissues). It is filed as binding.
The next series relates to murine Balb 3T3-cells. Briefly: binding to cell culture cells, Balb 3T3. Conditions: 1, 10, 50 nM. The format is cell-based. Here is the method: as §1, §3

Entries after “also recorded” stand apart in the source; their conditions may differ. Where two headings read alike, the source gives them in different places.

Chain of ED-B containing fibronectin fragment (67B89) (P02751 1085-1537 limits assumed): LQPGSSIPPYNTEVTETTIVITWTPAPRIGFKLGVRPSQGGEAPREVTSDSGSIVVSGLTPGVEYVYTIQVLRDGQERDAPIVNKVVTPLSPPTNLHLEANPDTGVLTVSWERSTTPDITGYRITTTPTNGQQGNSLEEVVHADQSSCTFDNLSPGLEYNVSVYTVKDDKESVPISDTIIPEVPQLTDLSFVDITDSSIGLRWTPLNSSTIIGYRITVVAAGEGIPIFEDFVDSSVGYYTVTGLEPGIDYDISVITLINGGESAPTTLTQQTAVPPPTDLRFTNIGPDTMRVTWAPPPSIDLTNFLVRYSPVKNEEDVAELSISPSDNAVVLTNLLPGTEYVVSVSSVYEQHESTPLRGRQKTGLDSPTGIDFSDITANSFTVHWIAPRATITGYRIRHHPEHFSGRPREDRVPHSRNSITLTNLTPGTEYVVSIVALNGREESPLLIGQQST
Chain of fibronectin fragment 67B89 (ED-B) (P02751 1085-1537 limits assumed): as above
T1 sequence (P02751 1085-1446 isoform P02751-1): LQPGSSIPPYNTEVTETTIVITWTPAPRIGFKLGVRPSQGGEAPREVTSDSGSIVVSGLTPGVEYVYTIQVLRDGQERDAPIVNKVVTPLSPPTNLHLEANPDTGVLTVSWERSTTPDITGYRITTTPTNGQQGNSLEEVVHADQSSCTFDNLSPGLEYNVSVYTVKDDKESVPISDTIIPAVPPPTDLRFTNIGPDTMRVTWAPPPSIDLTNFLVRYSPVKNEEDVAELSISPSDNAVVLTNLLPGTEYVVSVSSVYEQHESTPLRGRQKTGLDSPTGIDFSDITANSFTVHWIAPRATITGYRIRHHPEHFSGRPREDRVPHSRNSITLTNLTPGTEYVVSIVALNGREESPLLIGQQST
T2 sequence (P02751 1089-1449 isoform P02751-1): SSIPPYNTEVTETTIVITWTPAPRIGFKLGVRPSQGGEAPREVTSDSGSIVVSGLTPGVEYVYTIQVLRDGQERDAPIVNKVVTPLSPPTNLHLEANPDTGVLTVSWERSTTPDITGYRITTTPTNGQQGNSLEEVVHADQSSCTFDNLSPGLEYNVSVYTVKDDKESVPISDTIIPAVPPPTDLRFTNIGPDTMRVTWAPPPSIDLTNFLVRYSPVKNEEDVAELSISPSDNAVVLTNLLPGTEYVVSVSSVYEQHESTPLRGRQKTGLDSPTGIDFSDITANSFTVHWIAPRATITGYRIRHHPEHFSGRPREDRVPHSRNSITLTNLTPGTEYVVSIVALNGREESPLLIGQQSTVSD
Chain of ED-B (P02751 1266-1356 limits assumed): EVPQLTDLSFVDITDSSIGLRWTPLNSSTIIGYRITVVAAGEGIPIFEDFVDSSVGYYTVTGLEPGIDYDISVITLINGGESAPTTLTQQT
T3 sequence (P11276 33-2477): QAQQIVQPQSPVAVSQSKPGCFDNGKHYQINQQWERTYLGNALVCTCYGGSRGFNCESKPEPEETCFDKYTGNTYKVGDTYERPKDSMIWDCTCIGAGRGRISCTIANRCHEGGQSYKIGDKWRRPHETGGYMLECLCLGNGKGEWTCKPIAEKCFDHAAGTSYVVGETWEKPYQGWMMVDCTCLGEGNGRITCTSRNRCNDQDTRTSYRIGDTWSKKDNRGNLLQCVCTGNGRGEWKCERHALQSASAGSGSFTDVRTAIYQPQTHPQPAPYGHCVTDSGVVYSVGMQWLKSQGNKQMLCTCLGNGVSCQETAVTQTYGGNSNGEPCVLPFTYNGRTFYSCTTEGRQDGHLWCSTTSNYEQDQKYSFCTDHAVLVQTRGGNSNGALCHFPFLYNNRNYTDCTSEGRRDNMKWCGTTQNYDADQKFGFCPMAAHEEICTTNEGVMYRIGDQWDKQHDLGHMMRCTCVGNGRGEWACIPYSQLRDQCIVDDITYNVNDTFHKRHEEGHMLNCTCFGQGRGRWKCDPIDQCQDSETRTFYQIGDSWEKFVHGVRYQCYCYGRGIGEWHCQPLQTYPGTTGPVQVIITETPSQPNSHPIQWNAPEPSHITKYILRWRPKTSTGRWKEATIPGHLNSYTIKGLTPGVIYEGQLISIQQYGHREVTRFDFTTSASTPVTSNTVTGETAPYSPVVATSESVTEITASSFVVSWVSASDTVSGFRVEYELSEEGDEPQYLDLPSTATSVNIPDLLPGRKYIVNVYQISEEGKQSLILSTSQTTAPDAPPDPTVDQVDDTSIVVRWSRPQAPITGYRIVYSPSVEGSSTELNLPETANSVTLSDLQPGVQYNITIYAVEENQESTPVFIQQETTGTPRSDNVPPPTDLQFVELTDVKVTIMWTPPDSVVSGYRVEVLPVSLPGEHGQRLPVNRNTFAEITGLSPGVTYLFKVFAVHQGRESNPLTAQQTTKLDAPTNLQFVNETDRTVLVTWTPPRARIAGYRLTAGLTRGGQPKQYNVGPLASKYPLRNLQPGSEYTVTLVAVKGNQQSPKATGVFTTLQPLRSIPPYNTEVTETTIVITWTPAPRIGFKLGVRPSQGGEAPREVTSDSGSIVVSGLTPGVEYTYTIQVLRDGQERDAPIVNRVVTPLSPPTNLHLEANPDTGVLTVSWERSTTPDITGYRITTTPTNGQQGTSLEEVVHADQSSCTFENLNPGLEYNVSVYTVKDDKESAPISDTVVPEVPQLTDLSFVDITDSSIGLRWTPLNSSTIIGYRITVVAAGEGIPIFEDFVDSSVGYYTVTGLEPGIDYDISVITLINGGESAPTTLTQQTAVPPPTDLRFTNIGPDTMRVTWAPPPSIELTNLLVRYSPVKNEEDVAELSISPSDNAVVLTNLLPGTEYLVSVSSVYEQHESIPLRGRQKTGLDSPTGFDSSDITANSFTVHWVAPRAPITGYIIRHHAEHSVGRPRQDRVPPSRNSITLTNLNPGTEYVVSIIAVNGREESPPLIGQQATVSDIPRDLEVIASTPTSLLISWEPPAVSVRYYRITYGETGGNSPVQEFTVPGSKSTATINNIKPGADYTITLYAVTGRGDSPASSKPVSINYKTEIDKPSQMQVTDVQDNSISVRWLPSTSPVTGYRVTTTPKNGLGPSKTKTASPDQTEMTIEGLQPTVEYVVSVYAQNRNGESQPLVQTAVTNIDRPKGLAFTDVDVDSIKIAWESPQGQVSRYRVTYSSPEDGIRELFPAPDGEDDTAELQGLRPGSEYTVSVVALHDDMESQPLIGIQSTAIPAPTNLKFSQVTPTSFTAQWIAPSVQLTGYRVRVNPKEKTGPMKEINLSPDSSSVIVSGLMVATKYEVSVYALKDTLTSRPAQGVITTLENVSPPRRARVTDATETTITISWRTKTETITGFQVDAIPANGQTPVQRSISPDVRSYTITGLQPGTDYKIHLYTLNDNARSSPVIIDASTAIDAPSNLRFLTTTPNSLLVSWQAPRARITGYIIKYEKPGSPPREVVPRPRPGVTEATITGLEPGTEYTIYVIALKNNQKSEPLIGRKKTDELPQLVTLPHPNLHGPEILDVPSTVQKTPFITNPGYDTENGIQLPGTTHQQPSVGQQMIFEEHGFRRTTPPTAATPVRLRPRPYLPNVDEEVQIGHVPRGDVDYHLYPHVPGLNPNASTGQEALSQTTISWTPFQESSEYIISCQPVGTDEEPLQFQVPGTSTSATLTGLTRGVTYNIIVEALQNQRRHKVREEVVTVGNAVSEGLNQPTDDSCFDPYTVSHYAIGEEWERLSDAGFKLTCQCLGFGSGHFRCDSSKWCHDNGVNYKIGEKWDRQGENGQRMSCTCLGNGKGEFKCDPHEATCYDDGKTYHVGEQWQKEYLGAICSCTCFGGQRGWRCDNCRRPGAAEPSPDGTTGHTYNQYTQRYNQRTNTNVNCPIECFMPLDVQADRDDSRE

Consider “1041-D11-TNFalpha: fusion protein of hetero-dimeric variant 1041-D11 and TNFα (mouse or human)”, for which the “apoptosis inducing TNF-alpha activity” value in the series with L929 cells is on record as “as active as free TNF-alpha”. Moreover, in the series with F9 teratoma (in combination with Melphalan, 7 days, versus mTNFalpha with Melphalan or Melphalan alone), the relative tumor growth result is given as “reduces the relative tumor growth more efficiently”. Besides, the “effect on tumor growth” value was “no suppressing effect on tumor growth” in the series on F9 teratoma (highest dose (6.75 μmol/g)) and “seems to retard tumor growth” with F9 teratoma (lowest dose (0.25 pmol/g)). Further, in the series on EDB expressing cells (target(+)), the “binding to EDB expressing cells” value is given as “specifically binds”. Besides, the “cross reaction in serum without ED-B” value in the series on EDB expressing cells (target(−)) was “no cross reaction”. This substance showed an on-rate (kon) in [1] of 450000 M⁻¹ s⁻¹. The “binding to negative control fragment 6789” value in series [2] was “not bound”.

With “1041-D11: hetero-dimeric ubiquitin variant: K6W, L8W, K63R, E64K, S65F, T66P; second module K6T, L8Q, Q62W, K63S, E64N, S65W, T66E, Q2R”, in series [3] (different concentrations), the “binding on vital Wi38 cells” value is on record as “binds to vital Wi38 cells with high specificity”. Also, in series [3] (58.7 nM and 587 nM), the “binding on fixed Wi38 cells” value is “binds to fixed Wi38 cells with high specificity”. Moreover, the ED-B binding activity result with ED-B is “superior ED-B binding activity”. For the same substance, in series [4], the “complex formation with 6789 (no ED-B)” value is on record as “no significant binding; also recorded: no complex”. In [5], the “staining of F9 tumor tissue sections” value is “ED-B specific vascular staining”. In addition, the “accumulation in F9 tumor tissue” value in the series with F9 tumor tissues is “enriched”. In series [1], this substance returned a koff of 0.00077 s⁻¹ and a kon of 760000 M⁻¹ s⁻¹. Further, in the series on murine ST-2-cells, the “binding on fixed murine ST-2-cells” value is recorded as “binds to murine Balb ST-2 cells with high specificity”. In addition, the “complex formation with 67B89 (ED-B)” value in series [6] is “formation of a complex; also recorded: builds a complex”. Also, in [7], the “unspecific staining in 48 tissues” value was “no unspecific staining”. The “binding to negative control fragment 6789” value in [2] is recorded as “no binding”. Further, the “binding on fixed murine Balb 3T3-cells” value in the series with murine Balb 3T3-cells is listed as “binds to murine Balb 3T3 cells with high specificity”.

For the origin of these results see patent US8921304B2, “Modified ubiquitin proteins having a specific binding activity for the extradomain B of fibronectin” (Scil Proteins GmbH, priority 2009, dated 2014).
